# Measurements as given in PubChem BioAssay (NCI).
#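 Where inhibition never reached the appropriate level, the endpoint shown equals the highest concentration tested. Otherwise, values were interpolated linearly from a five-concentration, 48-hour dose response in 96-well plates. Here, GI50 denotes the concentration required for 50% inhibition of growth. The concentration for full growth arrest is given as TGI.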
# Assays:
# Assay in all cases: NCI tumour cell line growth inhibition, 48 h
# SNB-75 CNS = test system: SNB-75 CNS
# CCRF-CEM leukemia = test system: CCRF-CEM leukemia
# K-562 leukemia = test system: K-562 leukemia
# A549 NSCLC = test system: A549 NSCLC
# ACHN renal = test system: ACHN renal
# SK-OV-3 ovarian = test system: SK-OV-3 ovarian
# HOP-62 NSCLC = test system: HOP-62 NSCLC
# MALME-3M melanoma = test system: MALME-3M melanoma
# SK-MEL-5 melanoma = test system: SK-MEL-5 melanoma
# SNB-19 CNS = test system: SNB-19 CNS
# SK-MEL-2 melanoma = test system: SK-MEL-2 melanoma
# UO-31 renal = test system: UO-31 renal
# MDA-MB-435 = test system: MDA-MB-435
# HS 578T breast = test system: HS 578T breast
# A498 renal = test system: A498 renal
# PC-3 prostate = test system: PC-3 prostate
# NCI/ADR-RES ovarian = test system: NCI/ADR-RES ovarian
# HCT-15 colon = test system: HCT-15 colon
# NCI-H226 lung = test system: NCI-H226 lung
# RPMI-8226 leukemia = test system: RPMI-8226 leukemia
# EKVX NSCLC = test system: EKVX NSCLC
# T-47D breast = test system: T-47D breast
# UACC-257 melanoma = test system: UACC-257 melanoma
# NCI-H460 lung = test system: NCI-H460 lung
# MDA-MB-231 breast = test system: MDA-MB-231 breast
# COLO 205 colon = test system: COLO 205 colon
# 786-0 renal = test system: 786-0 renal
# BT-549 breast = test system: BT-549 breast
# HL-60(TB) leukemia = test system: HL-60(TB) leukemia
# TK-10 renal = test system: TK-10 renal
# SW-620 colon = test system: SW-620 colon
# OVCAR-8 ovarian = test system: OVCAR-8 ovarian
# LOX IMVI melanoma = test system: LOX IMVI melanoma
# DU-145 prostate = test system: DU-145 prostate
# IGROV1 ovarian = test system: IGROV1 ovarian
# KM12 colon = test system: KM12 colon
# OVCAR-4 ovarian = test system: OVCAR-4 ovarian
# OVCAR-5 ovarian = test system: OVCAR-5 ovarian
# HCT-116 colon = test system: HCT-116 colon
# SK-MEL-28 melanoma = test system: SK-MEL-28 melanoma
# UACC-62 melanoma = test system: UACC-62 melanoma
# SN12C renal = test system: SN12C renal
# MOLT-4 leukemia = test system: MOLT-4 leukemia
# HCC-2998 colon = test system: HCC-2998 colon
# NCI-H23 lung = test system: NCI-H23 lung
# SF-295 CNS = test system: SF-295 CNS
# RXF 393 renal = test system: RXF 393 renal
# MCF7 breast = test system: MCF7 breast
# SR leukemia = test system: SR leukemia
# SF-539 CNS = test system: SF-539 CNS
# HOP-92 NSCLC = test system: HOP-92 NSCLC
# OVCAR-3 ovarian = test system: OVCAR-3 ovarian
# U251 CNS = test system: U251 CNS
# SF-268 CNS = test system: SF-268 CNS
# HT29 colon = test system: HT29 colon
# NCI-H522 lung = test system: NCI-H522 lung
# M14 melanoma = test system: M14 melanoma
# CAKI-1 renal = test system: CAKI-1 renal
smiles,measurement,setting,value
Cc1ccc(-c2cc(C(=O)N3N=C(c4ccc(N)cc4)CC3c3ccc(Cl)cc3)c3ccccc3n2)cc1 (centres undefined),GI50,SNB-75 CNS,1.41 µM
same,TGI,SNB-75 CNS,6.68 µM
same,GI50,CCRF-CEM leukemia,4.53 µM
same,TGI,CCRF-CEM leukemia,> 100 µM
same,GI50,K-562 leukemia,3.09 µM
same,TGI,K-562 leukemia,> 100 µM
same,GI50,A549 NSCLC,4.79 µM
same,TGI,A549 NSCLC,> 100 µM
same,GI50,ACHN renal,4.19 µM
same,TGI,ACHN renal,> 100 µM
same,GI50,SK-OV-3 ovarian,4.94 µM
same,TGI,SK-OV-3 ovarian,> 100 µM
same,GI50,HOP-62 NSCLC,4.62 µM
same,TGI,HOP-62 NSCLC,> 100 µM
same,GI50,MALME-3M melanoma,> 100 µM
same,TGI,MALME-3M melanoma,> 100 µM
same,GI50,SK-MEL-5 melanoma,2.5 µM
same,TGI,SK-MEL-5 melanoma,> 100 µM
same,GI50,SNB-19 CNS,6.51 µM
same,TGI,SNB-19 CNS,> 100 µM
same,GI50,SK-MEL-2 melanoma,3.81 µM
same,TGI,SK-MEL-2 melanoma,> 100 µM
same,GI50,UO-31 renal,2.2 µM
same,TGI,UO-31 renal,> 100 µM
same,GI50,MDA-MB-435,1 µM
same,TGI,MDA-MB-435,3.66 µM
same,GI50,HS 578T breast,4.68 µM
same,TGI,HS 578T breast,> 100 µM
same,GI50,A498 renal,1.64 µM
same,TGI,A498 renal,6.5 µM
same,GI50,PC-3 prostate,3.4 µM
same,TGI,PC-3 prostate,> 100 µM
same,GI50,NCI/ADR-RES ovarian,2.54 µM
same,TGI,NCI/ADR-RES ovarian,> 100 µM
same,GI50,HCT-15 colon,3.33 µM
same,TGI,HCT-15 colon,> 100 µM
same,GI50,NCI-H226 lung,6.47 µM
same,TGI,NCI-H226 lung,> 100 µM
same,GI50,RPMI-8226 leukemia,4.1 µM
same,TGI,RPMI-8226 leukemia,> 100 µM
same,GI50,EKVX NSCLC,3.99 µM
same,TGI,EKVX NSCLC,> 100 µM
same,GI50,T-47D breast,2.73 µM
same,TGI,T-47D breast,> 100 µM
same,GI50,UACC-257 melanoma,33.7 µM
same,TGI,UACC-257 melanoma,> 100 µM
same,GI50,NCI-H460 lung,3.51 µM
same,TGI,NCI-H460 lung,> 100 µM
same,GI50,MDA-MB-231 breast,3.94 µM
same,TGI,MDA-MB-231 breast,92.2 µM
same,GI50,COLO 205 colon,2.8 µM
same,TGI,COLO 205 colon,9.48 µM
same,GI50,786-0 renal,4.22 µM
same,TGI,786-0 renal,> 100 µM
same,GI50,BT-549 breast,3.92 µM
same,TGI,BT-549 breast,> 100 µM
same,GI50,HL-60(TB) leukemia,3.49 µM
same,TGI,HL-60(TB) leukemia,> 100 µM
same,GI50,TK-10 renal,8.51 µM
same,TGI,TK-10 renal,> 100 µM
same,GI50,SW-620 colon,4.24 µM
same,TGI,SW-620 colon,> 100 µM
same,GI50,OVCAR-8 ovarian,5.25 µM
same,TGI,OVCAR-8 ovarian,> 100 µM
same,GI50,LOX IMVI melanoma,4 µM
same,TGI,LOX IMVI melanoma,> 100 µM
same,GI50,DU-145 prostate,3.68 µM
same,TGI,DU-145 prostate,> 100 µM
same,GI50,IGROV1 ovarian,6.48 µM
same,TGI,IGROV1 ovarian,> 100 µM
same,GI50,KM12 colon,3.46 µM
same,TGI,KM12 colon,> 100 µM
same,GI50,OVCAR-4 ovarian,4.71 µM
same,TGI,OVCAR-4 ovarian,> 100 µM
same,GI50,OVCAR-5 ovarian,8.43 µM
same,TGI,OVCAR-5 ovarian,> 100 µM
same,GI50,HCT-116 colon,3.18 µM
same,TGI,HCT-116 colon,> 100 µM
same,GI50,SK-MEL-28 melanoma,6.23 µM
same,TGI,SK-MEL-28 melanoma,> 100 µM
same,GI50,UACC-62 melanoma,2.06 µM
same,TGI,UACC-62 melanoma,> 100 µM
same,GI50,SN12C renal,6.84 µM
same,TGI,SN12C renal,> 100 µM
same,GI50,MOLT-4 leukemia,3.23 µM
same,TGI,MOLT-4 leukemia,> 100 µM
same,GI50,HCC-2998 colon,4.28 µM
same,TGI,HCC-2998 colon,> 100 µM
same,GI50,NCI-H23 lung,5.02 µM
same,TGI,NCI-H23 lung,> 100 µM
same,GI50,SF-295 CNS,3.13 µM
same,TGI,SF-295 CNS,> 100 µM
same,GI50,RXF 393 renal,1.63 µM
same,TGI,RXF 393 renal,7.06 µM
same,GI50,MCF7 breast,2.53 µM
same,TGI,MCF7 breast,> 100 µM
same,GI50,SR leukemia,3.29 µM
same,TGI,SR leukemia,> 100 µM
same,GI50,SF-539 CNS,2.43 µM
same,TGI,SF-539 CNS,8.1 µM
same,GI50,HOP-92 NSCLC,4.1 µM
same,TGI,HOP-92 NSCLC,92.3 µM
same,GI50,OVCAR-3 ovarian,2.98 µM
same,TGI,OVCAR-3 ovarian,36.6 µM
same,GI50,U251 CNS,4.51 µM
same,TGI,U251 CNS,> 100 µM
same,GI50,SF-268 CNS,4.09 µM
same,TGI,SF-268 CNS,> 100 µM
same,GI50,HT29 colon,3.35 µM
same,TGI,HT29 colon,> 100 µM
same,GI50,NCI-H522 lung,0.622 µM
same,TGI,NCI-H522 lung,4.21 µM
C[N+](C)=C/C=C(\Cl)c1ccc2ccccc2c1,TGI,SNB-75 CNS,> 58.2 µM
same,TGI,K-562 leukemia,> 33.2 µM
same,TGI,A549 NSCLC,> 100 µM
same,TGI,ACHN renal,28.5 µM
same,TGI,SK-OV-3 ovarian,38.2 µM
same,TGI,HOP-62 NSCLC,35 µM
same,TGI,MALME-3M melanoma,27.8 µM
same,TGI,SK-MEL-5 melanoma,36.5 µM
same,TGI,SNB-19 CNS,38.5 µM
same,TGI,SK-MEL-2 melanoma,59.9 µM
same,TGI,UO-31 renal,32.6 µM
same,TGI,MDA-MB-435,36 µM
same,TGI,HS 578T breast,> 100 µM
same,TGI,M14 melanoma,23.2 µM
same,TGI,A498 renal,> 100 µM
same,TGI,PC-3 prostate,43.5 µM
same,TGI,NCI/ADR-RES ovarian,17.3 µM
same,TGI,HCT-15 colon,11.2 µM
same,TGI,NCI-H226 lung,41.4 µM
same,TGI,RPMI-8226 leukemia,14.6 µM
same,TGI,EKVX NSCLC,60.1 µM
same,TGI,T-47D breast,48.3 µM
same,TGI,UACC-257 melanoma,36.8 µM
same,TGI,NCI-H460 lung,57.6 µM
same,TGI,MDA-MB-231 breast,28.8 µM
same,TGI,COLO 205 colon,41.4 µM
same,TGI,786-0 renal,28.9 µM
same,TGI,BT-549 breast,38.6 µM
same,TGI,HL-60(TB) leukemia,38.5 µM
same,TGI,TK-10 renal,33.4 µM
same,TGI,SW-620 colon,29.2 µM
same,TGI,OVCAR-8 ovarian,31.6 µM
same,TGI,LOX IMVI melanoma,12.8 µM
same,TGI,DU-145 prostate,28.8 µM
same,TGI,IGROV1 ovarian,34.9 µM
same,TGI,KM12 colon,32.3 µM
same,TGI,OVCAR-4 ovarian,11.6 µM
same,TGI,OVCAR-5 ovarian,39.8 µM
same,TGI,HCT-116 colon,9.79 µM
same,TGI,SK-MEL-28 melanoma,11.1 µM
same,TGI,UACC-62 melanoma,29.9 µM
same,TGI,SN12C renal,50 µM
same,TGI,MOLT-4 leukemia,3.67 µM
same,TGI,HCC-2998 colon,20.7 µM
same,TGI,NCI-H23 lung,17.1 µM
same,TGI,SF-295 CNS,33.8 µM
same,TGI,RXF 393 renal,47.9 µM
same,TGI,MCF7 breast,> 73.4 µM
same,TGI,SR leukemia,4.26 µM
same,TGI,SF-539 CNS,58.7 µM
same,TGI,HOP-92 NSCLC,53.3 µM
same,TGI,OVCAR-3 ovarian,13.4 µM
same,TGI,CAKI-1 renal,25 µM
same,TGI,U251 CNS,27.8 µM
same,TGI,SF-268 CNS,67 µM
same,TGI,HT29 colon,28.4 µM
same,TGI,NCI-H522 lung,67.8 µM
